Data reported in PubChem BioAssay AID179 (DTP/NCI, 2004).
“And” between values parts separate entries of the source, which are not always exact repeats. Equal entries are not always repeated. The source made the active and inactive calls.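 Rule for the calls: active = compounds giving half or more protection of infected cells from virus-caused growth loss, again on retest; inactive = the rest.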 Where a SMILES comes first, the peptide text is derived from it. [ ]: non-standard residue; d: D form. The star is where a group is joined. hSer = N[CH](CCO)C(=O)O; Boc = CC(C)(C)OC(=O)*

Test system: CEM cells HIV-1 protection, formazan growth assay
Experiment: NCI AIDS Antiviral Assay
Conditions: for IC50: measured here: growth of uninfected CEM cells
Summary of the method: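 Category rules: moderately active means at least 50% protection on retest, and confirmed active means 100% protection reproducibly. The underlying data came from a formazan growth assay in HIV-1-infected CEM cells.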

NCCN.NCCN.O=C([O-])C(=O)[O-].[Cl-].[Co+3]
outcome: inactive

COC(=O)/C=C\C(C#N)(C#N)N=Cc1ccsc1
EC50: > 2 µM | IC50: 0.759 µM

CCOC(=O)c1c(N2CCCC2)ncn(C)c1=S
EC50: > 200 µM | IC50: > 200 µM

CC(C)(C)[Si](OC[C@H]1OC(=O)[C@@H]2CN(Cc3ccccc3)C[C@H]12)(c1ccccc1)c1ccccc1
EC50: > 7.76 µM | IC50: > 7.76 µM

O=C1C=C(C(O)CCO)C(=O)c2c(O)ccc(O)c21 (stereo not given)
outcome: inactive

Cn1c(C(O)C2(c3cccnc3)SCCCS2)cc2ccccc21 (stereo not given)
EC50: > 200 µM | IC50: 75.9 µM

Cc1cc(=S)c2cc3c(cc2[nH]1)OCO3
EC50: > 200 µM | IC50: 79.4 µM

CC1=C(C(=O)NCc2ccccc2)C(c2ccccc2O)C(C(=O)NCc2ccccc2)=C(C)N1
EC50: > 200 µM | IC50: 33.9 µM

CCCCCCCCCCCC1=C(O)C(=O)C(CC2=C(O)C(=O)C(CCCCCCCCCCC)=C(O)C2=O)=C(O)C1=O
EC50: > 20 µM | IC50: > 20 µM

CCc1n[nH]c(=O)n1N
outcome: inactive

CN1CCN(C(=S)N(C(=O)c2cccs2)C2CCCCC2)CC1
EC50: > 195 µM | IC50: 91.2 µM

C/C(=N\NC(=O)CCSCCC(=O)N/N=C(\C)c1ccc(OS(C)(=O)=O)cc1)c1ccc(OS(C)(=O)=O)cc1
EC50: > 200 µM | IC50: > 200 µM

COCCC(NC(=O)C(CC(C)C)NC(=O)OC(C)(C)C)C(=O)OC (stereo not drawn) (Boc-Leu-[hSer](Me)-OMe; configuration not given here)
EC50: > 200 µM | IC50: 26.9 µM

CC(C)(NC(=O)OCc1ccccc1)C(=O)NC(Cc1ccccc1)C(=O)O (stereo not given) (HELM PEPTIDE1{[O=C(OCc1ccccc1)[*:2]].[Aib].[O=C(O)C(Cc1ccccc1)N[*:1]]}$$$$V2.0)
EC50: > 200 µM | IC50: > 200 µM

Clc1ncccc1SSc1cccnc1Cl
EC50: > 200 µM | IC50: 89.1 µM

CC(=O)NC(CSSCC(NC(C)=O)C(=O)O)C(=O)O (stereo not given)
EC50: > 776 µM | IC50: > 776 µM

COc1nc2c(c(O)c(C)c(=O)n2OC2OCC(OC(C)=O)C(OC(C)=O)C2OC(C)=O)c(=O)n1C (stereo not given)
EC50: > 132 µM | IC50: > 132 µM

Cc1ccc2nc(-c3ccc(N=NNc4ccc(-c5nc6ccc(C)c(S(=O)(=O)O)c6s5)cc4)cc3)sc2c1S(=O)(=O)O
EC50: 174 µM | IC50: > 200 µM

CC1(C)C(O)C[C@]23CCC[C@](C)(C[C@@H](O)C12)C3 (stereo not given in full)
EC50: > 200 µM | IC50: > 200 µM

COC(=O)[C@H](COC(C)(C)C)NC(=O)N[C@H](C)c1ccccc1
EC50: > 200 µM | IC50: > 200 µM

CCc1n[nH]c(CC)c1CCCCCCOc1ccc(OC)cc1Cl
EC50: > 200 µM | IC50: 9.77 µM and 10 µM

Cc1cc(NCCCCCCCNc2cc(C)nc3cc([N+](=O)[O-])ccc23)c2ccc([N+](=O)[O-])cc2n1
outcome: inactive

CCCCC1(O)CC2CC1C(C)C2(C)C (stereo not given)
EC50: > 200 µM | IC50: > 200 µM

O=C(NCc1ccccc1)c1cc2ccc(O)c(O)c2cn1
EC50: > 100 µM | IC50: 1.7 µM and > 6.31 µM

Cc1n[nH]c2ccc([N+](=O)[O-])cc2c1=O
EC50: > 57.5 µM | IC50: > 57.5 µM

O=C(CCCN1CCC2(CC1)C(=O)NC(=O)N2c1ccccc1)c1ccc(F)cc1
EC50: > 200 µM | IC50: > 200 µM

CCOC(=O)NC(Nc1ccc(F)cc1F)(C(F)(F)F)C(F)(F)F
EC50: > 200 µM | IC50: > 200 µM

COC(=O)CSSCc1ccccc1
EC50: > 200 µM | IC50: 5.25 µM

CCSc1nn(-c2c3ccccc3nc3ccccc23)c(=S)s1
EC50: > 200 µM | IC50: 102 µM

O=C(c1nc2ccc(Cl)cc2[nH]c1=O)C(O)c1ccc2c(c1)OCO2 (stereo not given)
EC50: > 501 µM | IC50: 24.5 µM

COc1c(O)c2c3c(cc(C)cc3c1C(C)C)OC2
EC50: > 28.2 µM | IC50: > 28.2 µM

COc1cc(C2c3cc4c(cc3OC(NNS(=O)(=O)c3ccc(C)cc3)C2C)OCO4)cc(OC)c1O (stereo not given)
outcome: inactive

CC(C)(C)c1cc(COc2c3sc(=S)sc3c(OCc3cc(C(C)(C)C)cc(C(C)(C)C)c3)c3sc(=S)sc23)cc(C(C)(C)C)c1
outcome: inactive

Cc1ccc(Cl)cc1N=NC(=O)NNc1cc(Cl)ccc1C
EC50: > 200 µM | IC50: 25.1 µM

COc1cccc(N=N/C(=N\NC(=O)c2cc(Br)ccc2O)c2ccc(N(CCC#N)CCC#N)cc2OC)c1
EC50: > 100 µM | IC50: 13.5 µM

[O-]c1c2c(nn1-c1ccc(Cl)cc1)c1ccccc1c[n+]2Cc1ccccc1
EC50: > 5.13 µM | IC50: > 5.13 µM

Cc1cc(C)c([O-])c(-[n+]2c(-c3ccccc3)cc(-c3ccccc3)cc2-c2ccccc2)c1
EC50: > 17 µM | IC50: 2.88 µM

CC1CC(c2ccc([N+](=O)[O-])cc2)=Nc2ccccc2S1=O (stereo not given)
EC50: > 12 µM | IC50: > 12 µM

Cc1cccc(/C=N\NC(=S)N2CCCCC2)n1
EC50: > 200 µM | IC50: 0.0631 µM

N#Cc1ccc(NC(=NCC(=O)O)Nc2cccc3ccccc23)cc1
EC50: > 200 µM | IC50: > 200 µM

Cc1ccc(S(=O)(=O)NC(N)=NCCCC(NC(=O)OCc2ccccc2)C(=O)N[C@H]2CC[C@H]3[C@@H]4CC=C5C[C@@H](O)CC[C@]5(C)[C@H]4CC[C@]23C)cc1 (stereo not given in full)
EC50: > 200 µM | IC50: 34.7 µM

OCC(O)C(O)C(O)C(O)c1nn[nH]n1 (stereo not given)
outcome: inactive

O=c1[nH]cnc2cccc(Cl)c12
EC50: > 200 µM | IC50: > 200 µM

O=C(O)c1cc(C(=C(c2cc(Cl)c(O)c(C(=O)O)c2)c2cc(Cl)c(O)c(C(=O)O)c2)c2cc(Cl)c(O)c(C(=O)O)c2)cc(Cl)c1O
EC50: 87.1 µM | IC50: 95.5 µM

COC(=O)C[C@](O)(CCC(C)(C)O)C(=O)O[C@@H]1C(OC)=C[C@]23CCCN2CCc2cc4c(cc2[C@H]13)OCO4
outcome: inactive

S=C1SCN2CCN3CSC(=S)N(CCN1C2)C3
EC50: > 81.3 µM | IC50: > 81.3 µM

O=C1NCCN1/N=C/c1c(Cl)n(-c2ccccc2)c2ccccc12
EC50: > 200 µM | IC50: 16.6 µM

CC(C)CC(=O)CC(C)[C@]1(CCCOCc2ccccc2)C(=O)N2CCC3(C[C@@]24CCC[C@H]41)OCCO3 (stereo not given in full)
EC50: > 200 µM | IC50: 35.5 µM

CCOC(=O)c1cc(NC(=O)N(CCC#N)CCN(C(=O)N[C@@H](Cc2ccccc2)C(=O)N[C@@H](CC(C)C)C(=O)NC)c2ccccc2)ccc1OC
EC50: > 200 µM | IC50: 29.5 µM

O=C(/C=C/c1ccccc1)/C=N/N1C(=S)N(c2ccccc2)C(=Nc2ccccc2)C1=Nc1ccccc1
EC50: > 200 µM | IC50: > 200 µM

CC(C)C1OC(N)=C(C#N)C1(C#N)C#N (stereo not given)
EC50: > 200 µM | IC50: 7.41 µM

O=C(CN1CCOCC1)c1ccc2c(c1)oc(=O)n2CCN1CCCC1
EC50: > 200 µM | IC50: 95.5 µM

CCOC(=O)C(NC(=O)OCc1ccccc1)C(=O)O (stereo not given)
EC50: > 200 µM | IC50: > 200 µM

N#CC(/C(=N/NC(=O)C(=O)NN)C(=O)Nc1nc([N+](=O)[O-])cs1)c1ccc(Cl)cc1 (stereo not given)
EC50: 95.5 µM | IC50: 209 µM

Nn1c(-c2cccc(Cl)c2)nc2ccccc2c1=O
outcome: inactive

O=c1n(-c2ccccc2)c(=O)n2c(=O)n(-c3ccccc3)c(=O)n12
EC50: > 100 µM | IC50: > 100 µM

COC(=O)C1=CCC[C@H]2C1(C)CCC(C)C21CC(c2ccoc2)OC1=O (stereo not given in full)
EC50: > 100 µM | IC50: 51.3 µM

CCCOC(=O)C(C)(C)C(OP(OCCC)OCCC)=C(C)C
EC50: > 200 µM | IC50: > 200 µM

CC1CCCC(C(=O)/C(=C/c2cccc(Cl)c2)C(=O)C(=O)O)C1 (stereo not given)
EC50: > 15.5 µM | IC50: > 15.5 µM

Cc1c(C(=O)c2ccccc2C(=O)O)c2ccccc2n1C
outcome: inactive
